# Reference: patent US7160884B2, “1-/2-substituted-1H/-2H-[1,2,3]triazolo[4,5-g]phthalazine-4,9-dione compound, process for the preparation thereof and pharmaceutical composition comprising the same” (EWHA University-Industry Collaboration Foundation, priority 2005, dated 2007)
# Where two headings read alike, the source gives them in different places.
# How the values were obtained:
# [1] = system: human melanoma cell line (SK-MEL-2); assay: SRB cytotoxicity evaluation, SK-MEL-2; assay type: cell-based; details: for IC50: SRB, SK-MEL-2
# Method: (§1) To verify the cytotoxic effect of the compounds prepared in Examples above, cytotoxicity was induced in cancer cells and SRB (Sulforhodamin B dye-staining) evaluation was conducted.
# (§2) Each compound prepared in Examples was dissolved in 10% DMSO. 10 μL of the solution and 190 μL of cell suspension (5×10^4 cells/ml) were placed in standard 96-well plate and cultured in 5% CO2 condition at 37° C. for 3 days. 190 μL of the same cell suspension was placed in at least 16 wells, followed by cultivation at 37° C. for 30 minutes, and used as zero-day control. After cultivation for a predetermined period of time, cells were fixed by adding 50 μL of 50% trichloroacetic acid in each well, followed by incubation at 4° C. for 30 minutes. Cells were washed with water 5 times, dried at room temperature, and stained by adding 100 μL of 1% acetic acid solution containing […] in each well, and then washed with 1% acetic acid after 1 hour and dried in air. 200 μL of 10 mM Tris-base was added in each well and stirred well, thereby dissolving the bound staining agent, followed by measurement of absorbance at 515 nm by using ELISA reader. Viability was determined based on the difference between the zero-day control group and 10% DMSO-treated control group. Viability about ellipticin and doxorubicin were also measured for comparison.
# (§3) Meanwhile, SRB evaluation was also conducted for human lung cancer cell line (A549), human ovarian cancer cell line (SK-OV-3), human melanoma cell line (SK-MEL-2), human central nervous system tumor cell line (XF498), and human colon cancer cell line (HCT15), and the results are shown in TABLE 2.
# [2] = system: human gastric cancer cell line (SNU-638); assay: SRB cytotoxicity evaluation, SNU-638; assay type: cell-based; details: 3 days culture
# Method: as §1
# (§4) Cancer cell lines used herein (NCI, US) was human gastric cancer cell line (SNU-638), human colon cancer cell line (Col2), human fibrosarcoma cell line (HT1080), and human myelogenous leukemia cell line (HL-60).
# as §2
# [3] = system: human central nervous system tumor cell line (XF498); assay: SRB cytotoxicity evaluation, XF498; assay type: cell-based; details: for IC50: SRB, XF498
# Method: as §1, §2, §3
# [4] = system: human fibrosarcoma cell line (HT1080); assay: SRB cytotoxicity evaluation, HT1080; assay type: cell-based; details: for IC50: SRB, 3 days culture, HT1080
# Method: as §1, §4, §2
# [5] = system: human colon cancer cell line (HCT15); assay: SRB cytotoxicity evaluation, HCT15; assay type: cell-based
# Method: as §1, §2, §3
# [6] = system: human ovarian cancer cell line (SK-OV-3); assay: SRB cytotoxicity evaluation, SK-OV-3; assay type: cell-based; details: for IC50: SRB, SK-OV-3
# Method: as §1, §2, §3
# [7] = system: human lung cancer cell line (A549); assay: SRB cytotoxicity evaluation, A549; assay type: cell-based; details: for IC50: SRB, A549
# Method: as §1, §2, §3
# [8] = system: human colon cancer cell line (Col2); assay: SRB cytotoxicity evaluation, Col2; assay type: cell-based; details: 3 days culture
# Method: as §1, §4, §2
# [9] = system: human myelogenous leukemia cell line (HL-60); assay: SRB cytotoxicity evaluation, HL-60; assay type: cell-based; details: 3 days culture
# Method: as §1, §4, §2
# [10] = system: human gastric cancer adenocarcinoma cell line; details: cited from earlier work
# [11] = comparison among tested compounds, in words
Compound,IC50 ([1]; Homo sapiens) [nM],"IC50 ([2]; Homo sapiens, 72 h) [nM]",IC50 ([3]; Homo sapiens) [nM],"IC50 ([4]; Homo sapiens, HT-1080, 72 h) [nM]","IC50 ([5]; Homo sapiens, HCT-15) [nM]",IC50 ([6]; Homo sapiens) [nM],IC50 ([7]; Homo sapiens) [nM],"IC50 ([8]; Homo sapiens, 72 h) [nM]","IC50 ([9]; Homo sapiens, 72 h) [nM]",further results
"Cc1c2ccncc2c(C)c2c1[nH]c1ccccc12 [Ellipticin, reference compound]",,,,,,,,,,IC50 [1]: 2410 nM; IC50 [2]: 2990 nM; IC50 [3]: 3640 nM; IC50 [4]: 1930 nM; IC50 [5]: 3720 nM; IC50 [6]: 1470 nM; IC50 [7]: 1320 nM; IC50 [8]: 2620 nM; IC50 [9]: 3370 nM
"Cn1nnc2c1C(=O)c1cnncc1C2=O [Example 2a, 1-methyl-1H-[1,2,3]triazolo[4,5-g]phthalazin-4,9-dione]",8,241,35,73,103,3,4,311,82,
"CCCn1nc2c(n1)C(=O)c1cnncc1C2=O [Example 4b, 2-n-propyl-2H-[1,2,3]triazolo[4,5-g]phthalazin-4,9-dione]",9,43,18,33,18,9,19,57,157,
"Cn1nc2c(n1)C(=O)c1cnncc1C2=O [Example 2b, 2-methyl-2H-[1,2,3]triazolo[4,5-g]phthalazin-4,9-dione]",2,54,4,7.8,20,0.4,2,132,124,"cytotoxicity rank against SK-MEL-2 [1, 11]: highest cytotoxicity; cytotoxicity rank against XF498 [3, 11]: highest cytotoxicity; cytotoxicity rank against HT1080 [4, 11]: highest cytotoxicity; cytotoxicity rank against SK-OV-3 [6, 11]: highest cytotoxicity; cytotoxicity rank against A549 [7, 11]: highest cytotoxicity"
"Cc1nc2c(n1-c1ccc(Br)cc1)C(=O)c1nccnc1C2=O [2-methyl-4,9-dehydro-1-(4-bromophenyl)-1H-imidazo[4,5-g]-quinoxaline-4,9-dione]",,,,,,,,,,cytotoxicity compared with cisplatin or doxorubicin [10]: higher than that of cisplatin or doxorubicin
"CCCCn1nnc2c1C(=O)c1cnncc1C2=O [Example 5a, 1-n-butyl-1H-[1,2,3]triazolo[4,5-g]phthalazin-4,9-dione]",23,155,181,99,177,21,81,421,89,
"CCCn1nnc2c1C(=O)c1cnncc1C2=O [Example 4a, 1-n-propyl-1H-[1,2,3]triazolo[4,5-g]phthalazin-4,9-dione]",20,212,85,75,176,14,26,353,83,
"CCCCn1nc2c(n1)C(=O)c1cnncc1C2=O [Example 5b, 2-n-butyl-2H-[1,2,3]triazolo[4,5-g]phthalazin-4,9-dione]",15,50,19,30,18,17,18,66,151,
"O=C1c2cnncc2C(=O)c2[nH]nnc21 [Example 1b, 1H-[1,2,3]triazolo[4,5-g]phthalazin-4,9-dione]",> 10000,> 5000,> 10000,> 5000,> 10000,7640,9020,> 5000,> 5000,
"COc1cccc2c1C(=O)c1c(O)c3c(c(O)c1C2=O)C[C@@](O)(C(=O)CO)C[C@@H]3O[C@H]1C[C@H](N)[C@H](O)[C@H](C)O1 [Doxorubicin, reference compound]",19,52,44,22,251,41,22,98,44,
"COc1ccc(Cn2nnc3c2C(=O)c2cnncc2C3=O)cc1 [Example 1a, 1-(4-methoxybenzyl)-1H-[1,2,3]triazolo[4,5-g]phthalazin-4,9-dione]",41,257,118,330,59,12,54,2380,130,
"CCn1nc2c(n1)C(=O)c1cnncc1C2=O [Example 3b, 2-ethyl-2H-[1,2,3]triazolo[4,5-g]phthalazin-4,9-dione]",4,46,17,204,18,3,18,170,90,
"CCn1nnc2c1C(=O)c1cnncc1C2=O [Example 3a, 1-ethyl-1H-[1,2,3]triazolo[4,5-g]phthalazin-4,9-dione]",8,126,34,68,39,3,6,341,56,
